Measurements reported in patent US20240190916A1, “NOVEL PEPTIDE” (HYSENSBIO, priority 2022, published 2024).

Legend:
BSP gene = test: BSP mRNA level by real-time PCR in human-derived mesenchymal stem cells; format: cell-based; conditions: compared to untreated control
Experimental: (§1) It was cultured at 37° C. in humid air containing 5% CO2 and used for the experiment. Human mesenchymal stem cells (hBMSCs) were purchased from Lonza (LONZA, Switzerland) and used. hBMSCs were cultured in a-MEM (Invitrogen) medium supplemented with 10% heat-inactivated bovine serum.
(§2) Total RNA of human dental pulp cells and mesenchymal stem cells was isolated using a TRIzol reagent. cDNA was synthesized using 2 μg of total RNA, 1 μl of reverse transcriptase, and 0.5 μg of oligo (dT). The synthesized cDNA was used for real-time polymerase chain reaction. The real-time polymerase chain reaction was performed in ABI PRISM 7500 sequence detection system (Applied Biosystems) using SYBR GREEN PCR Master Mix (Takara, Japan). The real-time polymerase chain reaction was performed at 94° C., 1 min; 95° C., 15 sec-60° C., 34 sec was performed under the condition of repeating 40 cycles. An analysis of the results was evaluated using a comparative cycle threshold (CT) method, and primer base sequences are listed in Table 9.
(§3) BSP and DMP1 genes are used as markers for differentiation of osteoblasts and cementoblasts, and are known as important genes for calcification of a bone and cementum. The effects of each group of peptides on BSP and DMP1 mRNA expression were confirmed by a real-time PCR (Tables 11 and 12).

DSPP gene = test: DSPP mRNA level by real-time PCR in human dental pulp cells; format: cell-based; conditions: peptide 10 ug/ml, compared to untreated control
Experimental: Human pulp tissue cells were isolated from wisdom teeth of 10 adults (18-22 years old) at Seoul National University Dental Hospital. Specifically, all experiments were performed with the patient's consent after approval from the hospital's Institutional Review Board, and wisdom teeth are cut according to a method of Jung H S et al (J Mol Histol. (2011)), exposing the pulp and isolating the pulp with forceps. The isolated pulp was minced on both sides, placed in a 60 mm dish, covered with a cover slip, and then cultured in Dulbecco's Modified Eagle medium. It is known that human dental pulp cells can differentiate into odontoblasts, osteoblasts, cementoblasts and periodontal ligament cells under various conditions (Tissue Eng Part A. 2014 April; 20(7-8): 1342-51).
as §2
The effect of each group of peptides on DSPP mRNA expression was confirmed by real-time PCR (Table 10).

DSP = test: Western blot of DSP protein in human dental pulp cells; format: cell-based; conditions: 1, 10, and 50 ug, FIG. 3
Experimental: (§4) FIG. 3 is a result of confirming expressions of DSP and BSP proteins by Western blot after treating human dental pulp cells with the novel peptide (SEQ ID NO: 1) in a concentration-dependent manner (1, 10, and 50 ug) to confirm the effect of novel peptides on expressions of marker proteins for differentiation of odontoblasts, osteoblasts and cementoblasts.

DMP1 gene = test: DMP1 mRNA level by real-time PCR in human-derived mesenchymal stem cells; format: cell-based; conditions: compared to untreated control
Experimental: as §1, §2, §3

BSP = test: Western blot of BSP protein in human dental pulp cells; format: cell-based; conditions: 1, 10, and 50 ug, FIG. 3
Experimental: as §4

[1] = test system: human dental pulp cells (hDPCs) transplanted into the subcutaneous tissue of mice with impaired immune systems; test: In vivo transplantation of hDPCs with HA/TCP and histological analysis
Experimental: Human dental pulp cells (hDPCs) were isolated and used for in vivo transplantation experiments. hDPCs (2×10^6 cells) were mixed with 100 mg of hydroxy apatite/tricalcium phosphate (HA/TCP) ceramic powder (Zimmer, USA) alone or along with peptides (10 μg) or 0.5% fibrin gel, and then transplanted into mice (NIH-bg-nu-xid; Harlan Laboratories, Indianapolis, IN) with damaged immune systems for 6 and 12 weeks. Thereafter, samples were harvested, fixed in 4% paraformaldehyde, decalcified in 10% EDTA (pH 7.4), embedded in paraffin, and stained with hematoxylin-eosin (H-E) (Vector Labs).

[2] = test system: damaged dentin of beagle dog's teeth; test: Dentin regeneration in dentin damage model; format: in vivo; conditions: 10 ug per tooth, 3 weeks after application, vs control group, FIG. 4
Experimental: Three beagle dogs (12-16 kg; […]) were anesthetized by inhalation of Geloran, intravenously injected with Zoletil (5 mg/kg) and Xylazine (0.2-0.5 mg/kg), and then treated with Lidocaine (Lidocaine 2% with 1:80,000 epinephrine). After damaging the dentin of the premolars and molar teeth in the mandible of the beagle dog using a dental bur, 10 ug of SEQ ID NO: 1 peptide of group 1 was treated per tooth. After 6 weeks, a beagle dog was sacrificed by administering an excessive amount (90-120 mg/kg) of pentobarbital. The tooth of the beagle dog was extracted, fixed with 10% formalin, calcium was removed by adding 5% formic acid, molded, and embedded in paraffin, and then a tissue section with a thickness of 5 μm were obtained, a obtained tissue section was stained with hematoxylin and eosin, and then analyzed using by an optical microscope equipped with a digital camera (LEICA ICC50 camera, Germany).
FIG. 4 is the result of histological evaluation 3 weeks after application of 10 ug of the novel peptide (SEQ ID NO: 1) after damaging the dentine of beagle dog's teeth in order to confirm that the novel peptide induces physiological dentin regeneration in a animal model of damaged dentin.

Sequence | mRNA level of BSP gene, BSP gene expression, Average (BSP gene) [fold] | mRNA level of DSPP gene, Average (DSPP gene) [fold] | expression of DSP protein (marker for differentiation of odontoblasts) (DSP) | mRNA level of DMP1 gene, DMP1 gene expression, Average (DMP1 gene) [fold] | expression of BSP protein (marker for differentiation of osteoblasts and cementoblasts) (BSP) | periodontal ligament formation, hematoxylin-eosin histology ([1]; 10 ug peptide with hDPCs, 6 weeks after transplantation, vs hDPCs-only control, FIG. 6) | proportion of hard tissue formation ([1]; 10 ug peptide with hDPCs, 12 weeks after transplantation, vs hDPCs-only control, FIG. 5) | hard tissue (bone/cementum-like tissue) formation, hematoxylin-eosin histology ([1]; hDPCs with HA/TCP, 12 weeks after transplantation, FIG. 5) | physiological dentin regeneration, histological evaluation [2]
KYKAKKKNYK [SEQ ID NO: 1] | 2.892 | 9.028 | increased in a concentration-dependent manner | 11.401 | increased in a concentration-dependent manner | periodontal ligament fiber bundle (black triangle) were formed | increased | more similar hard tissue formation as the BMP-2 treated group compared to the control group | physiological dentin was formed in the lower part the damaged dentine
KYAKRKRSYK [SEQ ID NO: 48] | 1.773 | 2.516 | – | 6.757 | – | – | – | – | –
KYARKRKSYK [SEQ ID NO: 59] | 1.629 | 2.120 | – | 5.510 | – | – | – | – | –
KYAKKKKSYK [SEQ ID NO: 41] | 1.762 | 1.897 | – | 7.727 | – | – | – | – | –
KYRARRRNYK [SEQ ID NO: 23] | 2.037 | 1.915 | – | 9.105 | – | – | – | – | –
KYKARRRSYK [SEQ ID NO: 15] | 2.119 | 3.620 | – | 8.991 | – | – | – | – | –
KYRARKRSYK [SEQ ID NO: 32] | 1.893 | 1.861 | – | 8.107 | – | – | – | – | –
KYRAKRRNYK [SEQ ID NO: 21] | 1.995 | 2.167 | – | 9.100 | – | – | – | – | –
KYARKRKNYK [SEQ ID NO: 51] | 1.899 | 2.572 | – | 5.272 | – | – | – | – | –
KYARRRRSYK [SEQ ID NO: 63] | 2.237 | 2.120 | – | 5.727 | – | – | – | – | –
KYRARKKSYK [SEQ ID NO: 28] | 2.084 | 2.311 | – | 9.198 | – | – | – | – | –
KYKARKRNYK [SEQ ID NO: 8] | 2.617 | 7.021 | – | 11.120 | – | – | – | – | –
KYRARKRNYK [SEQ ID NO: 24] | 2.276 | 2.021 | – | 9.333 | – | – | – | – | –
KYARRRKSYK [SEQ ID NO: 62] | 1.769 | 1.836 | – | 5.333 | – | – | – | – | –
KYRARKKNYK [SEQ ID NO: 20] | 2.91 | 1.702 | – | 8.537 | – | – | – | – | –
KYKAKKKSYK [SEQ ID NO: 9] | 2.084 | 3.057 | – | 9.869 | – | – | – | – | –
KYARKRRSYK [SEQ ID NO: 61] | 1.832 | 1.525 | – | 5.787 | – | – | – | – | –
KYRAKRRSYK [SEQ ID NO: 29] | 1.978 | 2.125 | – | 9.525 | – | – | – | – | –
